Target: T1, Ba/F3 cell EGFR Exon20 ins NPH (Homo sapiens, UniProt P00533, INS773NPH)
T1 construct: expressed in transfected cells; host or cells: Ba/F3
Experiment: Ba/F3 cell proliferation suppression, EGFR Exon20 ins NPH
Assay type: cell-based
Details: GI50 class; Ba/F3 cell line with NPH inserted at Exon20 of EGFR; 72 hours
Method in brief: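 Growth suppression determined as GI50 following 72 h exposure across 12 concentrations up to 50 um, with viability by luminescent ATP assay (CellTiter-Glo).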

| Structure (SMILES) | Ba/F3 (NPH) Activity |
| --- | --- |
| C=CC(=O)Nc1cc(Nc2cc(N3OCC[C@@H]3c3ccc(C)nc3)ncn2)c(OC)cc1N1CCC(N2CCN(C3CC3)CC2)CC1 [Example 67, N-(2-(4-(4-cyclopropylpiperazine-1-yl)piperidine-1-yl)-4-methoxy-5-((6-((R)-3-(6-methylpyridine-3-yl)isoxazolidine-2-yl)pyrimidine-4-yl)amino)phenyl) acrylamide] | B (50 nM ≤ GI50 < 500 nM) |
| C=CC(=O)Nc1cc(Nc2cc(N3OCC[C@@H]3c3ccc(F)c(Cl)c3F)ncn2)c(OC)cc1N1CCO[C@@H](C)C1 [compound 657, N-(5-((6-((R)-3-(3-chloro-2,4-difluorophenyl)isoxazolidine-2-yl)pyrimidine-4-yl)amino)-4-methoxy-2-((S)-2-methylmorpholino)phenyl)acrylamide] | A (GI50 < 50 nM) |
| C=CC(=O)Nc1cc(Nc2cc(N3OCC[C@@H]3c3ccc(Cl)cc3)ncn2)c(OC)cc1N1CCC(N2CCN(C)CC2)CC1 [compound 732, N-(5-((6-((R)-3-(4-chlorophenyl)isoxazolidine-2-yl)pyrimidine-4-yl)amino)-4-methoxy-2-(4-(4-methylpiperazine-1-yl)piperidine-1-yl)phenyl) acrylamide] | A (GI50 < 50 nM) |
| C=CC(=O)Nc1cc(Nc2cc(N3OCC[C@@H]3c3cccc(F)c3)ncn2)c(OC)cc1N1CCN(C2COC2)CC1 [compound 792, N-(5-((6-((R)-3-(3-fluorophenyl)isoxazolidine-2-yl)pyrimidine-4-yl)amino)-4-methoxy-2-(4-(oxetane-3-yl)piperazine-1-yl)phenyl) acrylamide] | A (GI50 < 50 nM) |
| C=CC(=O)Nc1cc(Nc2cc(N3OCC[C@@H]3c3cccc(Cl)c3C)ncn2)c(OC)cc1N1CCC(N2C[C@@H]3C[C@H]2CO3)CC1 [compound 531, N-(2-(4-((1S,4S)-2-oxa-5-azabicyclo[2.2.1]heptane-5-yl)piperidine-1-yl)-5-((6-((R)-3-(3-chloro-2-methylphenyl)isoxazolidine-2-yl)pyrimidine-4-yl)amino)-4-methoxyphenyl) acrylamide] | A (GI50 < 50 nM) |
| C=CC(=O)Nc1cc(Nc2cc(N3OCC[C@@H]3c3ccc(Cl)cc3)ncn2)c(OC)cc1N1CCC(N2CCOCC2)CC1 [compound 782, N-(5-((6-((R)-3-(4-chlorophenyl)isoxazolidine-2-yl)pyrimidine-4-yl)amino)-4-methoxy-2-(4-morpholinopiperidine-1-yl)phenyl)acrylamide] | A (GI50 < 50 nM) |
| C=CC(=O)Nc1cc(Nc2cc(N3OCC[C@@H]3c3cc(F)ccc3F)ncn2)c(OC)cc1N1CCC(N2CCO[C@@H](C)C2)CC1 [compound 821, N-(5-((6-((R)-3-(2,5-difluorophenyl)isoxazolidine-2-yl)pyrimidine-4-yl)amino)-4-methoxy-2-(4-((S)-2-methylmorpholino)piperidine-1-yl)phenyl) acrylamide] | A (GI50 < 50 nM) |
| C=CC(=O)Nc1cc(Nc2cc(N3OCC[C@@H]3c3cccc(C)c3F)ncn2)c(OC)cc1N1CCN(C2CC2)CC1 [compound 909, N-(2-(4-cyclopropylpiperazine-1-yl)-5-((6-((R)-3-(2-fluoro-3-methylphenyl)isoxazolidine-2-yl)pyrimidine-4-yl)amino)-4-methoxyphenyl) acrylamide] | A (GI50 < 50 nM) |
| C=CC(=O)Nc1cc(Nc2cc(N3OCC[C@@H]3c3ccc(F)c(Cl)c3F)ncn2)c(OC)cc1N1CCC(N2CCN(C3COC3)CC2)CC1 [Example 202, N-(5-((6-((R)-3-(3-chloro-2,4-difluorophenyl)isoxazolidine-2-yl)pyrimidine-4-yl)amino)-4-methoxy-2-(4-(4-(oxetane-3-yl)piperazine-1-yl)piperidine-1-yl)phenyl)acrylamide] | A (GI50 < 50 nM) |
| C=CC(=O)Nc1cc(Nc2cc(N3OCC[C@@H]3Cc3ccccc3)ncn2)c(OC)cc1N1C[C@H]2C[C@@H]1CO2 [compound 957, N-(5-((6-((S)-3-benzylisoxazolidine-2-yl)pyrimidine-4-yl)amino)-2-((1R,4R)-2-oxa-5-azabicyclo [2.2.1]heptane-5-yl)-4-methoxyphenyl) acrylamide] | A (GI50 < 50 nM) |
| C=CC(=O)Nc1cc(Nc2cc(N3OCC[C@@H]3c3cccc(Cl)c3F)ncn2)c(OC)cc1N1CCC(N2CCN(C3COC3)CC2)CC1 [Example 86, N-(5-((6-((R)-3-(3-chloro-2-fluorophenyl)isoxazolidine-2-yl)pyrimidine-4-yl)amino)-4-methoxy-2-(4-(4-(oxetane-3-yl)piperazine-1-yl)piperidine-1-yl)phenyl)acrylamide] | A (GI50 < 50 nM) |
| C=CC(=O)Nc1cc(Nc2cc(N3OCC[C@@H]3Cc3cccc(Cl)c3F)ncn2)c(OC)cc1N1CCC(N2CCN(C3CC3)[C@@H](C)C2)CC1 [compound 1018, N-(5-((6-((S)-3-(3-chloro-2-fluorobenzyl)isoxazolidine-2-yl)pyrimidine-4-yl)amino)-2-(4-((S)-4-cyclopropyl-3-methylpiperazine-1-yl)piperidine-1-yl)-4-methoxyphenyl) acrylamide] | A (GI50 < 50 nM) |
| C=CC(=O)Nc1cc(Nc2cc(N3OCC[C@@H]3c3ccc(C)nc3)ncn2)c(OC)cc1N1CCN(CC)CC1 [Example 42, N-(2-(4-ethylpiperazine-1-yl)-4-methoxy-5-((6((R)-3-(6-methylpyridine-3-yl)isoxazolidine-2-yl)pyrimidine-4-yl)amino)phenyl) acrylamide] | B (50 nM ≤ GI50 < 500 nM) |
| C=CC(=O)Nc1cc(Nc2cc(N3OCC[C@@H]3c3ccc(Cl)cc3F)ncn2)c(OC)cc1N(C)CCN(C)C [compound 371, N-(5-((6-((R)-3-(4-chloro-2-fluorophenyl)isoxazolidine-2-yl)pyrimidine-4-yl)amino)-2-((2-(dimethylamino)ethyl)(methyl)amino)-4-methoxyphenyl) acrylamide] | A (GI50 < 50 nM) |
| C=CC(=O)Nc1cc(Nc2cc(N3OCC[C@@H]3c3cccc(C)c3F)ncn2)c(OC)cc1N1CCC(N2CCN(C(C)C)CC2)CC1 [compound 911, N-(5-((6-((R)-3-(2-fluoro-3-methylphenyl)isoxazolidine-2-yl)pyrimidine-4-yl)amino)-2-(4-(4-isopropylpiperazine-1-yl)piperidine-1-yl)-4-methoxyphenyl) acrylamide] | A (GI50 < 50 nM) |
| C=CC(=O)Nc1cc(Nc2cc(N3OCC[C@@H]3c3cccc(Cl)c3Cl)ncn2)c(OC)cc1N1C[C@H]2C[C@@H]1CN2CC [compound 525, N-(5-((6-((R)-3-(2,3-dichlorophenyl)isoxazolidine-2-yl)pyrimidine-4-yl)amino)-2-((1R,4R)-5-ethyl-2,5-diazabicyclo[2.2.1]heptane-2-yl)-4-methoxyphenyl) acrylamide] | A (GI50 < 50 nM) |
| C=CC(=O)Nc1cc(Nc2cc(N3OCC[C@@H]3c3cc(F)cc(Cl)c3)ncn2)c(OC)cc1N1CCC(N2CCN(C3CCC3)CC2)CC1 [Example 189, N-(5-((6-((R)-3-(3-chloro-5-fluorophenyl)isoxazolidine-2-yl)pyrimidine-4-yl)amino)-2-(4-(4-cyclobutylpiperazine-1-yl)piperidine-1-yl)-4-methoxyphenyl) acrylamide] | A (GI50 < 50 nM) |
| C=CC(=O)Nc1cc(Nc2cc(N3OCC[C@@H]3c3cccc(Cl)c3C)ncn2)c(OC)cc1N1CC[C@@H](N(C)C)C1 [compound 586, N-(5-((6-((R)-3-(3-chloro-2-methylphenyl)isoxazolidine-2-yl)pyrimidine-4-yl)amino)-2-((R)-3-(dimethylamino)pyrolidine-1-yl)-4-methoxyphenyl) acrylamide] | A (GI50 < 50 nM) |
| C=CC(=O)Nc1cc(Nc2cc(N3OCC[C@@H]3c3cccc(Cl)c3F)ncn2)c(OC)cc1N1CCC(N2CCC(N(C)C)CC2)CC1 [compound 915, N-(5-((6-((R)-3-(3-chloro-2-fluorophenyl)isoxazolidine-2-yl)pyrimidine-4-yl)amino)-2-(4-(dimethylamino)-[1,4'-bipiperidine]-1'-yl)-4-methoxyphenyl) acrylamide] | B (50 nM ≤ GI50 < 500 nM) |
| C=CC(=O)Nc1cc(Nc2cc(N3OCC[C@@H]3c3cc(F)cc(F)c3)ncn2)c(OC)cc1N1CCN(C)[C@H](C)C1 [compound 917, N-(5-((6-((R)-3-(3,5-difluorophenyl)isoxazolidine-2-yl)pyrimidine-4-yl)amino)-2-((R)-3,4-dimethylpiperazine-1-yl)-4-methoxyphenyl) acrylamide] | A (GI50 < 50 nM) |
| C=CC(=O)Nc1cc(Nc2cc(N3OCC[C@@H]3c3ccc(F)c(Cl)c3)ncn2)c(OC)cc1N1CCC(N(C)C)CC1 [compound 755, N-(5-((6-((R)-3-(3-chloro-4-fluorophenyl)isoxazolidine-2-yl)pyrimidine-4-yl)amino)-2-(4-(dimethylamino)piperidine-1-yl)-4-methoxyphenyl) acrylamide] | A (GI50 < 50 nM) |
| C=CC(=O)Nc1cc(Nc2cc(N3OCC[C@@H]3c3cccc(C#N)c3)ncn2)c(OC)cc1N1CCC(N2CC[C@H](N(C)C)C2)CC1 [compound 435, N-(5-((6-((R)-3-(3-cyanophenyl)isoxazolidine-2-yl)pyrimidine-4-yl)amino)-2-(4-((S)-3-(dimethylamino)pyrolidine-1-yl)piperidine-1-yl)-4-methoxyphenyl) acrylamide] | B (50 nM ≤ GI50 < 500 nM) |
| C=CC(=O)Nc1cc(Nc2cc(N3OCC[C@@H]3Cc3cccc(F)c3)ncn2)c(OC)cc1N1CCC(N2CCN(C3CC3)CC2)CC1 [compound 997, N-(2-(4-(4-cyclopropylpiperazine-1-yl)piperidine-1-yl)-5-((6-((S)-3-(3-fluorobenzyl)isoxazolidine-2-yl)pyrimidine-4-yl)amino)-4-methoxyphenyl) acrylamide] | A (GI50 < 50 nM) |
